Source: ChEMBL document CHEMBL1124317, “Rationale for the synthesis and preliminary biological evaluation of highly active new antitumor nitrosoureido sugars” (J Med Chem, 1989)

Key:
Assay type in all cases: functional
[1] = Mortality range of the mice with L1210 leukemia treated with 5 mg/kg of dose intraperitoneally with no of mice survived/no of mice treated; 0/8; details: route intraperitoneal
Mus musculus [2] = test: The number of L1210 leukemia mice survived after 30 days with compound injected by a dose of 20 mg/kg intraperitoneally; 10/10; details: route intraperitoneal
[3] = Ratio of mice died to that of mice treated with 20 mg/kg of compound in olive oil intraperitoneally with L1210 leukemia tumor; 0/15; details: route intraperitoneal
Mus musculus [4] = test: The number of L1210 leukemia mice survived after 60 days with compound injected by a dose of 2.5 mg/kg intraperitoneally; 0/10; details: route intraperitoneal
Mus musculus [5] = test: Anti tumor activity l when treated to mice with B16 Melanocarcinoma with 10 mg/kg dose of compound intraperitoneally was expressed as percent of treated to control (T/C %); details: route intraperitoneal
Mus musculus [6] = test: The number of B16 Melanocarcinoma mice survived after 60 days with compound injected by a dose of 5 mg/kg intraperitoneally; 1/10; details: route intraperitoneal
[7] = Mortality range of the mice with B16 Melanocarcinoma treated with 10 mg/kg of dose intraperitoneally with no of mice survived/no of mice treated; 0/10; details: route intraperitoneal
Mus musculus [8] = test: Median survival time of the non surviving mice; treated with 5 mg/kg of compound to mice with L1210 leukemia; 11-32
Mus musculus [9] = test: The number of B16 Melanocarcinoma mice survived after 60 days with compound injected by a dose of 20 mg/kg intraperitoneally; 9/10; details: route intraperitoneal
Mus musculus [10] = test: Anti tumor activity in olive oil when treated to mice with L1210 leukemia with 20 mg/kg dose of compound intraperitoneally was expressed as percent of treated to control (T/C %); details: route intraperitoneal
Mus musculus [11] = test: The number of L1210 leukemia mice survived after 30 days with compound injected by a dose of 2.5 mg/kg intraperitoneally; 8/8; details: route intraperitoneal
Mus musculus [12] = test: The number of L1210 leukemia mice survived after 30 days with compound injected by a dose of 2.5 mg/kg intraperitoneally; 0/10; details: route intraperitoneal
Mus musculus [13] = test: The number of L1210 Leukemia mice survived after 60 days with compound in olive oil injected by a dose of 20 mg/kg intraperitoneally; 7/15; details: route intraperitoneal
Mus musculus [14] = test: Anti tumor activity l when treated to mice with B16 Melanocarcinoma with 5 mg/kg dose of compound intraperitoneally was expressed as percent of treated to control (T/C %); details: route intraperitoneal
Mus musculus [15] = test: The number of B16 Melanocarcinoma mice survived after 30 days with compound injected by a dose of 30 mg/kg intraperitoneally; 10/10; details: route intraperitoneal
Mus musculus [16] = test: The number of L1210 Leukemia mice survived after 30 days with compound in olive oil injected by a dose of 20 mg/kg intraperitoneally; 15/15; details: route intraperitoneal
Mus musculus [17] = test: The number of B16 Melanocarcinoma mice survived after 30 days with compound injected by a dose of 10 mg/kg intraperitoneally; 10/10; details: route intraperitoneal
Mus musculus [18] = test: Anti tumor activity l when treated to mice with L1210 leukemia with 0.625 mg/kg dose of compound intraperitoneally was expressed as percent of treated to control (T/C %); details: route intraperitoneal
[19] = Mortality range of the mice with B16 Melanocarcinoma treated with 5 mg/kg of dose intraperitoneally with no of mice survived/no of mice treated; 0/10; details: route intraperitoneal
Mus musculus [20] = test: The number of B16 Melanocarcinoma mice survived after 30 days with compound injected by a dose of 5 mg/kg intraperitoneally; 9/10; details: route intraperitoneal
Mus musculus [21] = test: The number of L1210 leukemia mice survived after 30 days with compound injected by a dose of 5 mg/kg intraperitoneally; 3/10; details: route intraperitoneal
Mus musculus [22] = test: The number of L1210 leukemia mice survived after 30 days with compound injected by a dose of 0.625 mg/kg intraperitoneally; 0/8; details: route intraperitoneal
Mus musculus [23] = test: The number of Lewis lung mice survived after 30 days with compound in olive oil injected by a dose of 20 mg/kg intraperitoneally; 20/20; details: route intraperitoneal
Mus musculus [24] = test: The number of L1210 leukemia mice survived after 30 days with compound injected by a dose of 10 mg/kg intraperitoneally; 9/10; details: route intraperitoneal
Mus musculus [25] = test: The number of L1210 leukemia mice survived after 30 days with compound in aqueous solution injected by a dose of 20 mg/kg intraperitoneally; 6/10; details: route intraperitoneal
[26] = Mortality range of the mice with L1210 leukemia treated with 10 mg/kg of dose intraperitoneally with no of mice survived/no of mice treated; 0/10; details: route intraperitoneal
[27] = Mortality range of the mice with B16 Melanocarcinoma treated with 20 mg/kg of dose intraperitoneally with no of mice survived/no of mice treated; 0/10; details: route intraperitoneal
[28] = Mortality range of the mice with L1210 leukemia treated with 1.25 mg/kg of dose intraperitoneally with no of mice survived/no of mice treated; 0/8; details: route intraperitoneal
Mus musculus [29] = test: Anti tumor activity l when treated to mice with L1210 leukemia with 5 mg/kg dose of compound intraperitoneally was expressed as percent of treated to control (T/C %); details: route intraperitoneal
[30] = Mortality range of the mice with L1210 leukemia treated with 30 mg/kg of dose intraperitoneally with no of mice survived/no of mice treated; 1/10; details: route intraperitoneal
Mus musculus [31] = test: Median survival time of the non surviving mice; treated with 20 mg/kg of compound in olive oil to mice with L1210 leukemia tumor; […]
Mus musculus [32] = test: The number of B16 Melanocarcinoma mice survived after 60 days with compound injected by a dose of 30 mg/kg intraperitoneally; 9/10; details: route intraperitoneal
[33] = Mortality range of the mice with L1210 leukemia treated with 10 mg/kg of dose intraperitoneally with no of mice survived/no of mice treated; 0/8; details: route intraperitoneal
Mus musculus [34] = test: The number of L1210 leukemia mice survived after 60 days with compound injected by a dose of 5 mg/kg intraperitoneally; 8/8; details: route intraperitoneal
Mus musculus [35] = test: Median survival time of the non surviving mice; treated with 2.5 mg/kg of compound to mice with L1210 leukemia; 11-14
Mus musculus [36] = test: The number of B16 melanocarcinoma mice survived after 30 days with compound in olive oil injected by a dose of 20 mg/kg intraperitoneally; 13/20; details: route intraperitoneal
[37] = Mortality range of the mice with L1210 leukemia treated with 2.5 mg/kg of dose intraperitoneally with no of mice survived/no of mice treated; 0/8; details: route intraperitoneal
[38] = Ratio of mice died to that of mice treated with 5 mg/kg of compound in aqueous solution intraperitoneally with L1210 leukemia; 0/10; details: route intraperitoneal
Mus musculus [39] = test: Median survival time of the non surviving mice; treated with 0.625 mg/kg of compound to mice with L1210 leukemia; 10-12
Mus musculus [40] = test: Median survival time of the non surviving mice; treated with 20 mg/kg of compound in olive oil to mice with B16 Melanocarcinoma; 12-47
Mus musculus [41] = test: The number of B16 Melanocarcinoma mice survived after 30 days with compound injected by a dose of 20 mg/kg intraperitoneally; 10/10; details: route intraperitoneal
Mus musculus [42] = test: The number of L1210 leukemia mice survived after 60 days with compound injected by a dose of 10 mg/kg intra peritoneally; 8/8

## CO[C@@H]1C[C@@H](NC(=O)N(CCCl)N=O)[C@H](O)[C@@H](CO)O1 [ECOMUSTINE]
[1]
  Ratio: 0
Mus musculus [2]
  Survivals: 10
[3]
  Ratio: 0
Mus musculus [4]
  Survivals: 0
Mus musculus [5]
  T/C: 233%
Mus musculus [6]
  Survivals: 1
[7]
  Ratio: 0
Mus musculus [8]
  Median survival time: 15.4
Mus musculus [9]
  Survivals: 9
Mus musculus [10]
  T/C: 644%
Mus musculus [11]
  Survivals: 8
Mus musculus [12]
  Survivals: 0
Mus musculus [13]
  Survivals: 7
Mus musculus [14]
  T/C: 203%
Mus musculus [15]
  Survivals: 10
Mus musculus [16]
  Survivals: 15
Mus musculus [17]
  Survivals: 10
Mus musculus [18]
  T/C: 125%
[19]
  Ratio: 0
Mus musculus [20]
  Survivals: 9
Mus musculus [21]
  Survivals: 3
Mus musculus [22]
  Survivals: 0
Mus musculus [23]
  Survivals: 20
Mus musculus [24]
  Survivals: 9
Mus musculus [25]
  Survival after 30 days: 6
[26]
  Ratio: 0
[27]
  Ratio: 0
[28]
  Ratio: 0
Mus musculus [29]
  T/C: 164%
[30]
  Ratio: 1
Mus musculus [31]
  Median survival time: 57.5
Mus musculus [32]
  Survivals: 9
[33]
  Ratio: 0
Mus musculus [34]
  Survivals: 8
Mus musculus [35]
  Median survival time: 12.9
Mus musculus [36]
  Survivals: 13
[37]
  Ratio: 0
[38]
  Ratio: 0
Mus musculus [39]
  Median survival time: 11.25
Mus musculus [40]
  Median survival time: 33.33
Mus musculus [41]
  Survivals: 10
Mus musculus [42]
  Survivals: 8
